Reference: article PMC12061832, “Exploring novel dilazep derivatives as hENT1 inhibitors and potentially covalent molecular tools” (Purinergic Signalling, 2024)
Where “and” joins values, the source holds several entries; their conditions need not be identical. Identical values can stand only once.

Molecular target: T1, hENT1 (Homo sapiens, UniProt Q99808)
T1 construct: performed on erythrocyte cell membranes endogenously expressing the transporter; tissue Sanquin Bloedvoorziening, Amsterdam, The Netherlands; host or cells: erythrocyte membranes (endogenous expression)
T1 sequence (Q99808 1-456): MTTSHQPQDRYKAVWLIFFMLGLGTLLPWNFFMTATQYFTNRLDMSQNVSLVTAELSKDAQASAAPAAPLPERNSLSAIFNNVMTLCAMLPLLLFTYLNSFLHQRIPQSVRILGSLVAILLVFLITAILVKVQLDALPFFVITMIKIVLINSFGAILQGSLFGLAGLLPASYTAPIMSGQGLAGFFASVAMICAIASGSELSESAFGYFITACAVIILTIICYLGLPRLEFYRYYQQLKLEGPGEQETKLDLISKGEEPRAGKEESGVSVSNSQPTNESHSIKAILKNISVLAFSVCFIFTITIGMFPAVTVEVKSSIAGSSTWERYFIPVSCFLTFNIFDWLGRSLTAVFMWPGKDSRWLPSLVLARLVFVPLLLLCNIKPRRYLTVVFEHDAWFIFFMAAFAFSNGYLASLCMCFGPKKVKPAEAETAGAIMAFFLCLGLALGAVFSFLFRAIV
Assay: [3H]NBTI displacement assay on erythrocyte membranes
Format: binding
Conditions: for % displacement at 1 μM: 1 µM inhibitor, [3H]NBTI displacement, mean (individual values) of two experiments; for Ki: erythrocyte membranes, 4 nM [3H]NBTI, 10 °C, 1 h
Protocol: Dilazep and ST7092 were obtained from ASTA-Werke AG (Bielefeld, Germany) and Chemie Linz AG (Linz, Austria), respectively. Radioligand displacement assays were performed as previously described. In brief, the experiments were performed on erythrocyte membranes (Sanquin Bloedvoorziening, Amsterdam, The Netherlands) using a single concentration of 1 µM or multiple concentrations (ranging from 10^–10 to 10^–6) of unlabeled inhibitors in the presence of 4 nM [^3H]NBTI at 10 °C for 1 h in assay buffer (50 mM Tris–HCl, pH 7.4, 0.1% w/v CHAPS). Non-specific binding (NSB) was assessed with 10 µM unlabeled NBTI. […] Subsequently, [^3H]NBTI was added to the preincubated and control samples (containing erythrocyte membranes, unlabeled inhibitor and radioligand) and both types of samples were incubated for another hour. Incubation was terminated by rapid vacuum filtration over Whatman™ UniFilter™ 96-well GF/C microplates using a FilterMate™ Universal Harvester (PerkinElmer, Groningen, The Netherlands). Subsequently, the plates were washed ten times with ice-cold wash buffer (50 mM Tris–HCl, pH 7.4). Thereafter, the filters were dried for 45 min at 55 °C and 25 µL of Microscint (PerkinElmer) was added per well. The filter-bound radioactivity was determined by scintillation spectrometry using a MicroBeta^2 2450 Microplate Counter (PerkinElmer).
For data analysis, dilazep and ST7092 were used as positive controls. All experimental data was analyzed using GraphPad Prism 10.0.2 software (GraphPad Software Inc., San Diego, CA, USA). [^3H]NBTI assays were baseline-corrected with NSB and normalized to this value (0%) and TB (100%). The radioligand displacement curves were fitted to a one-site binding model by nonlinear regression from which the pIC50 values were obtained. […] Data shown represent the mean ± SD of at least two or mean ± SEM of at least three individual experiments each performed in duplicate.
To determine the affinities of the non-covalent hENT1 inhibitors, a [^3H]NBTI displacement assay was performed on erythrocyte cell membranes endogenously expressing the transporter. All compounds were initially screened at a concentration of 1 µM to provide the percentage displacement. If more than 75% displacement was observed, compounds were subsequently characterized in full concentration-effect curves to determine their affinity.

**Q.** How did the “% displacement at 1 μM” value turn out when COc1cc(C(=O)OCCCN2CCN(CCCOC(=O)c3ccccc3)CC2)cc(OC)c1OC [Compound 6a, 3-(4-(3-(benzoyloxy)propyl)piperazin-1-yl)propyl 3,4,5-trimethoxybenzoate] was run?
**A.** -3 (0, -5) %

**Q.** How did the “% displacement at 1 μM” value turn out when COc1ccccc1C(=O)OCCCN1CCN(CCCOC(=O)c2cc(OC)c(OC)c(OC)c2)CC1 [Compound 6k, 3-(4-(3-((2-methoxybenzoyl)oxy)propyl)piperazin-1-yl)propyl 3,4,5-trimethoxybenzoate] was run?
**A.** little to no displacement and 6 (5, 8) %

**Q.** With COc1ccc(C(=O)OCCCN2CCN(CCCOC(=O)c3ccc(OC)c(OC)c3)CC2)cc1OC [Compound 6s, piperazine-1,4-diylbis(propane-3,1-diyl) bis(3,4-dimethoxybenzoate)] as the molecule, how does the “% displacement at 1 μM” value read?
**A.** around 30% and 27 (33, 21) %

**Q.** Which “% displacement at 1 μM” value does the source give for COc1cccc(C(=O)OCCCN2CCN(CCCOC(=O)c3cccc(OC)c3)CC2)c1 [Compound 6q, piperazine-1,4-diylbis(propane-3,1-diyl) bis(3-methoxybenzoate)] here?
**A.** 8 (11, 4) %

**Q.** Which results are given for COc1ccc(C(=O)OCCCN2CCN(CCCOC(=O)c3cc(OC)c(OC)c(OC)c3)CC2)cc1OC [Compound 6n, 3-(4-(3-((3,4-dimethoxybenzoyl)oxy)propyl)piperazin-1-yl)propyl 3,4,5-trimethoxybenzoate]?
**A.** decrease in affinity compared to ST7092: 80 fold; Ki: 136 nM

**Q.** COc1cc(C(=O)OCCCN2CCN(CCCOC(=O)c3ccc(N(C)C)cc3)CC2)cc(OC)c1OC [Compound 6h, 3-(4-(3-((4-(dimethylamino)benzoyl)oxy)propyl)piperazin-1-yl)propyl 3,4,5-trimethoxybenzoate] was tested. Which “% displacement at 1 μM” value did it give?
**A.** 19 (11, 26) %

**Q.** COc1ccc(C(=O)OCCCN2CCN(CCCOC(=O)c3ccc(OC)cc3)CC2)cc1 [Compound 6r, piperazine-1,4-diylbis(propane-3,1-diyl) bis(4-methoxybenzoate)] was tested. Which “% displacement at 1 μM” value did it give?
**A.** -8 (-5, -11) %

**Q.** How did the “% displacement at 1 μM” value turn out when COc1cc(C(=O)OCCCN2CCN(CCCOC(=O)c3ccc(C)c(C)c3)CC2)cc(OC)c1OC [Compound 6c, 3-(4-(3-((3,4-dimethylbenzoyl)oxy)propyl)piperazin-1-yl)propyl 3,4,5-trimethoxybenzoate] was run?
**A.** -7 (-7, -8) %

**Q.** Which “% displacement at 1 μM” value does the source give for COc1cc(C(=O)OCCCN2CCN(CCCOC(=O)c3cc(C)cc(C)c3)CC2)cc(OC)c1OC [Compound 6d, 3-(4-(3-((3,5-dimethylbenzoyl)oxy)propyl)piperazin-1-yl)propyl 3,4,5-trimethoxybenzoate] here?
**A.** -4 (-4, -4) %

**Q.** Which “% displacement at 1 μM” value does the source give for COc1ccccc1C(=O)OCCCN1CCN(CCCOC(=O)c2ccccc2OC)CC1 [Compound 6p, piperazine-1,4-diylbis(propane-3,1-diyl) bis(2-methoxybenzoate)] here?
**A.** 7 (15, -1) %

**Q.** Which “% displacement at 1 μM” value does the source give for COc1cc(C(=O)OCCCN2CCN(CCCOC(=O)c3cccc(N(C)C)c3)CC2)cc(OC)c1OC [Compound 6g, 3-(4-(3-((3-(dimethylamino)benzoyl)oxy)propyl)piperazin-1-yl)propyl 3,4,5-trimethoxybenzoate] here?
**A.** 21 (21, 21) %

**Q.** With COc1cc(C(=O)OCCCN2CCN(CCCOC(=O)c3ccc(Cl)c(Cl)c3)CC2)cc(OC)c1OC [Compound 6f, 3-(4-(3-((3,4-dichlorobenzoyl)oxy)propyl)piperazin-1-yl)propyl 3,4,5-trimethoxybenzoate] as the molecule, how does the “% displacement at 1 μM” value read?
**A.** -4 (-7, -1) %

**Q.** COc1cc(OC)cc(C(=O)OCCCN2CCN(CCCOC(=O)c3cc(OC)cc(OC)c3)CC2)c1 [Compound 6t, piperazine-1,4-diylbis(propane-3,1-diyl) bis(3,5-dimethoxybenzoate)] was tested. Which “% displacement at 1 μM” value did it give?
**A.** little to no displacement and 8 (12, 4) %

**Q.** How did the Ki turn out when COc1cc(C(=O)OCCCN2CCN(CCCOC(=O)c3cc(OC)c(OC)c(OC)c3)CC2)cc(OC)c1OC [ST7092, reference compound] was run?
**A.** 1.79 nM

**Q.** How did the “% displacement at 1 μM” value turn out when “3-(4-(3-((3-(methylamino)benzoyl)oxy)propyl)piperazin-1-yl)propyl 3,4,5-trimethoxybenzoate [Compound 6j]” was run?
**A.** 17 (16, 19) %

**Q.** Which “decrease in affinity compared to ST7092” value does the source give for COc1cc(OC)cc(C(=O)OCCCN2CCN(CCCOC(=O)c3cc(OC)c(OC)c(OC)c3)CC2)c1 [Compound 6o, 3-(4-(3-((3,5-dimethoxybenzoyl)oxy)propyl)piperazin-1-yl)propyl 3,4,5-trimethoxybenzoate] here?
**A.** 80 fold

**Q.** And the Ki?
**A.** 146 nM

**Q.** For COc1cc(C(=O)OCCCN2CCN(CCCOC(=O)c3ccc(C)cc3)CC2)cc(OC)c1OC [Compound 6b, 3-(4-(3-((4-methylbenzoyl)oxy)propyl)piperazin-1-yl)propyl 3,4,5-trimethoxybenzoate], which “% displacement at 1 μM” value is on record?
**A.** 7 (10, 3) %

**Q.** COc1ccc(C(=O)OCCCN2CCN(CCCOC(=O)c3ccccc3OC)CC2)cc1OC [Compound 6u, 3-(4-(3-((2-methoxybenzoyl)oxy)propyl)piperazin-1-yl)propyl 3,4-dimethoxybenzoate] was tested. Which “% displacement at 1 μM” value did it give?
**A.** little to no displacement and 12 (16, 9) %

**Q.** Which “% displacement at 1 μM” value does the source give for “3-(4-(3-((4-(methylamino)benzoyl)oxy)propyl)piperazin-1-yl)propyl 3,4,5-trimethoxybenzoate [Compound 6i]” here?
**A.** 6 (3, 9) %

**Q.** With COc1ccc(C(=O)OCCCN2CCN(CCCOC(=O)c3cc(OC)c(OC)c(OC)c3)CC2)cc1 [Compound 6m, 3-(4-(3-((4-methoxybenzoyl)oxy)propyl)piperazin-1-yl)propyl 3,4,5-trimethoxybenzoate] as the molecule, how does the “% displacement at 1 μM” value read?
**A.** around 30% and 36 (39, 33) %

**Q.** For COc1cc(C(=O)OCCCN2CCN(CCCOC(=O)c3ccc(Cl)cc3)CC2)cc(OC)c1OC [Compound 6e, 3-(4-(3-((4-chlorobenzoyl)oxy)propyl)piperazin-1-yl)propyl 3,4,5-trimethoxybenzoate], which “% displacement at 1 μM” value is on record?
**A.** not able to inhibit [^3H]NBTI binding and 1 (3, -1) %

**Q.** How did the “% displacement at 1 μM” value turn out when COc1cc(OC)cc(C(=O)OCCCN2CCN(CCCOC(=O)c3ccc(OC)c(OC)c3)CC2)c1 [Compound 6v, 3-(4-(3-((3,5-dimethoxybenzoyl)oxy)propyl)piperazin-1-yl)propyl 3,4-dimethoxybenzoate] was run?
**A.** around 30% and 34 (42, 26) %

**Q.** For COc1cccc(C(=O)OCCCN2CCN(CCCOC(=O)c3cc(OC)c(OC)c(OC)c3)CC2)c1 [Compound 6l, 3-(4-(3-((3-methoxybenzoyl)oxy)propyl)piperazin-1-yl)propyl 3,4,5-trimethoxybenzoate], which “% displacement at 1 μM” value is on record?
**A.** little to no displacement and 9 (3, 16) %
